For 34 compounds, IC50 results are on record in patent US12011444B2, “N-substituted indole derivatives as PGE2 receptor modulators” (Idorsia Pharmaceuticals Ltd, priority 2015, dated 2024).

For experiment [1], the target named is PTGER2 (EP2) (Homo sapiens (Human), UniProt P43116). As to the kind of experiment: hEP2 b-arrestin assay (PathHunter HEK 293 PTGER2 b-arrestin cells). In kind it is cell-based. In short, it runs like this:
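Readout is β-galactosidase complementation luminescence, expressed as percent of DMSO control (duplicates). PathHunter HEK293 EP2/β-arrestin 2 cells, grown 24 h, received compound for 15 min at 37 °C before a 120 min challenge with PGE2 at 5 μM final, followed by 1 h detection at room temperature.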

In experiment [2] the target is PTRGER4 (EP4) (Homo sapiens (Human), UniProt P35408). As to the kind of experiment: hEP4 b-arrestin assay (PathHunter HEK 293 PTGER4 b-arrestin cells). The class given is cell-based. In short, it runs like this: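 Antagonist mode: compound is given 15 min at 37 °C, then 20 nM (final) PGE2 for 120 min, in HEK293 cells stably expressing EP4 fused to ProLink and β-arrestin 2 fused to EA. Recruitment read as β-gal luminescence after 1 h reagent at room temperature, as percent of DMSO control.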

The mark [3] stands for this setting: antagonistic activity on hEP2, mean where measured multiple times.
[4] abbreviates: antagonistic activity on hEP4, mean where measured multiple times.
[5] abbreviates: hEP2 b-arrestin assay (values without asterisk).
Where [6] appears, read: hEP4 b-arrestin assay (values without asterisk).

PTRGER4 (EP4), sequence (P35408 whole entry, looked up, the tested form may be a part): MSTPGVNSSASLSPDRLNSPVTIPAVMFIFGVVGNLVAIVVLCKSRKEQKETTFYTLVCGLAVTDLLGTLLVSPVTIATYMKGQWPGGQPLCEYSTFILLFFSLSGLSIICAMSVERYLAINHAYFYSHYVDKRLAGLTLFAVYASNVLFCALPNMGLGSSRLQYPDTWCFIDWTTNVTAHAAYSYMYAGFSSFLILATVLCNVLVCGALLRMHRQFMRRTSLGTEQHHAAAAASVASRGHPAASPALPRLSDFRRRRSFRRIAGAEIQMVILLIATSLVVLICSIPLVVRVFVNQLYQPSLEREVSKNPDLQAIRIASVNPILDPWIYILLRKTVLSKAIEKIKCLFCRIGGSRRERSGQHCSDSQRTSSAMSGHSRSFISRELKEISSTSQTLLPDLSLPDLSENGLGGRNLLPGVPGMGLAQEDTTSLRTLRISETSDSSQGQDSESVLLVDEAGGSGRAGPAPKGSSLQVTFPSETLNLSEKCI
PTGER2 (EP2), sequence (P43116 whole entry): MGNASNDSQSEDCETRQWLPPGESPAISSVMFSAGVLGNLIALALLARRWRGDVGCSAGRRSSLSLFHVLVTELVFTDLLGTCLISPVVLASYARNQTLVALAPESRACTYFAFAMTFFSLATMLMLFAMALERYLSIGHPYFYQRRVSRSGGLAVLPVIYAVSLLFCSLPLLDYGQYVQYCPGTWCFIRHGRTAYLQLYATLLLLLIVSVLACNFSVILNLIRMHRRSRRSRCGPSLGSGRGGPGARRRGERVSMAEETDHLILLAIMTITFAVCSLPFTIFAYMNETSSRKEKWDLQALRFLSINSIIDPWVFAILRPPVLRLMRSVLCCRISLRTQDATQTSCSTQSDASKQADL

The term IC50 denotes the concentration needed to halve the response being measured. A lower IC50 goes with higher potency. Take `Cc1cc(F)c(F)c2c1cc(C)n2CCNc1cc(-c2ccc3cc[nH]c3c2)ncn1` [compound 59, [2-(6,7-Difluoro-2,4-dimethyl-indol-1-yl)-ethyl]-[6-(1H-indol-6-yl)-pyrimidin-4-yl]-amine]: the concentration for half-maximal inhibition (IC50) in experiment [1] (setting [3]) is 213 nM; in experiment [2] (setting [4]), 485 nM.

With `COc1cccc2c1cc(C)n2CCNc1cc(-c2ccc(-c3c[nH]cn3)cc2)ncn1` [compound 77, {6-[4-(1H-Imidazol-4-yl)-phenyl]-pyrimidin-4-yl}-[2-(4-methoxy-2-methyl-indol-1-yl)-ethyl]-amine], the 50% inhibitory concentration (IC50) amounted to 8 nM in experiment [1] (setting [3]) and 89 nM in experiment [2] (setting [4]).

For `COc1ccc(F)c2c1cc(C)n2CCNc1cc(-c2cc(F)c(C(=O)O)s2)ncn1` [compound 112], the IC50 in experiment [1] (setting [3]) worked out at 4 nM; in experiment [2] (setting [4]), 69 nM.

`COc1cccc2c1cc(C)n2CCNc1cc(-c2ccc(CO)c(Cl)c2)ncn1` [compound 16, (2-Chloro-4-{6-[2-(4-methoxy-2-methyl-indol-1-yl)-ethylamino]-pyrimidin-4-yl}-phenyl)-methanol]: the IC50 in experiment [1] (setting [3]) was 9 nM; in experiment [2] (setting [4]) it was 202 nM.

With `CCOc1cc(OCCC(=O)O)cc(-c2cc(NCCn3c(C#N)cc4c(OC)ccc(F)c43)ncn2)c1` [Example 926, 3-(3-{6-[2-(2-Cyano-7-fluoro-4-methoxy-indol-1-yl)-ethylamino]-pyrimidin-4-yl}-5-ethoxy-phenoxy)-propionic acid], the IC50 turned out to be 4 nM in experiment [1] (setting [5]) and 20 nM in experiment [2] (setting [6]).

With `COc1ccc(F)c2c1cc(C#N)n2CCNc1cc(-c2ccc(C3(F)COC3)s2)ncn1` [Example 1055, 7-Fluoro-1-(2-{6-[5-(3-fluoro-oxetan-3-yl)-thiophen-2-yl]-pyrimidin-4-ylamino}-ethyl)-4-methoxy-1H-indole-2-carbonitrile], the IC50 was found to be 249 nM in experiment [1] (setting [5]) and 60 nM in experiment [2] (setting [6]).

Consider `CCN1Cc2cc(-c3cc(NCCn4c(C)cc5c(OC)cccc54)ncn3)ccc2C1=O` [compound 197, 2-Ethyl-5-{6-[2-(4-methoxy-2-methyl-indol-1-yl)-ethylamino]-pyrimidin-4-yl}-2,3-dihydro-isoindol-1-one], for which the results for the IC50 in experiment [1] (setting [3]) and in experiment [2] (setting [4]) were 32 nM and 751 nM, respectively.

Take `CCc1cc(-c2cc(NCCn3c(C)cc4c(C)ccc(F)c43)ncn2)ccc1C(=O)O` [compound 220]: the IC50 in experiment [1] (setting [3]) came to 18 nM; in experiment [2] (setting [4]) it was 216 nM.

Consider `CCOc1cc(-c2cc(NCCn3c(C)cc4c(OC)ccc(F)c43)ncn2)sc1NC=O` [Example 1072, N-(3-Ethoxy-5-{6-[2-(7-fluoro-4-methoxy-2-methyl-indol-1-yl)-ethylamino]-pyrimidin-4-yl}-thiophen-2-yl)-formamide], for which the concentration for half-maximal inhibition (IC50) in experiment [1] (setting [5]) is 3 nM; in experiment [2] (setting [6]) it was 17 nM.

Take `Cc1cc(F)cc2c1cc(C)n2CCNc1cc(-c2cc(Cl)c(C(=O)O)c(Cl)c2)ncn1` [compound 390]: the IC50 in experiment [1] (setting [3]) is 38 nM; in experiment [2] (setting [4]), 146 nM.

With `CCc1nc(-c2cc(NCCn3c(C)cc4c(OC)ccc(F)c43)ncn2)sc1C(=O)O` [Example 1037, 4-Ethyl-2-{6-[2-(7-fluoro-4-methoxy-2-methyl-indol-1-yl)-ethylamino]-pyrimidin-4-yl}-thiazole-5-carboxylic acid], the IC50 was found to be 60 nM in experiment [1] (setting [5]) and 100 nM in experiment [2] (setting [6]).

With `COc1c(-c2cc(NCCn3c(C)cc4c(OC)ccc(F)c43)ncn2)csc1C(=O)O` [compound 215], the results for the IC50 in experiment [1] (setting [3]) and in experiment [2] (setting [4]) were 139 nM and 972 nM, respectively.

In the case of `COc1cc(-c2cc(NCCn3c(C#N)cc4c(OC)ccc(F)c43)ncn2)ccn1` [Example 898, 7-Fluoro-4-methoxy-1-{2-[6-(2-methoxy-pyridin-4-yl)-pyrimidin-4-ylamino]-ethyl}-1H-indole-2-carbonitrile], the IC50 in experiment [1] (setting [5]) amounted to 41 nM; in experiment [2] (setting [6]) it was 123 nM.

`CSc1cc(-c2cc(NCCn3c(C)cc4c(C)c(F)cc(Cl)c43)ncn2)ccc1C(=O)O` [compound 270]: the IC50 amounted to 46 nM in experiment [1] (setting [3]) and 513 nM in experiment [2] (setting [4]).

`Cc1ccc(F)c2c1cc(C)n2CCNc1cc(-c2cc(Cl)c(C(=O)O)s2)ncn1` [compound 18, 3-Chloro-5-{6-[2-(7-fluoro-2,4-dimethyl-indol-1-yl)-ethylamino]-pyrimidin-4-yl}-thiophene-2-carboxylic acid]: the values for the half-inhibitory concentration (IC50) in experiment [1] (setting [3]) and in experiment [2] (setting [4]) were 27 nM and 123 nM, respectively.

Regarding `N#Cc1cc2c(Cl)cccc2n1CCNc1cc(-c2cc(Cl)c(C(=O)O)s2)ncn1` [Example 1020, 3-Chloro-5-{6-[2-(4-chloro-2-cyano-indol-1-yl)-ethylamino]-pyrimidin-4-yl}-thiophene-2-carboxylic acid], the IC50 in experiment [1] (setting [5]) worked out at 2 nM; in experiment [2] (setting [6]), 29 nM.

As to `CSc1cc(-c2cc(NCCn3c(C)cc4c(Cl)ccc(Cl)c43)ncn2)cc(Cl)c1C(=O)O` [compound 142, 2-Chloro-4-{6-[2-(4,7-dichloro-2-methyl-indol-1-yl)-ethylamino]-pyrimidin-4-yl}-6-methylsulfanyl-benzoic acid], the IC50 was found to be 16 nM in experiment [1] (setting [3]) and 588 nM in experiment [2] (setting [4]).

As for `Cc1cc(F)cc2c1cc(C)n2CCNc1cc(-c2cc(Cl)c(C(=O)O)s2)ncn1` [compound 19, 3-Chloro-5-{6-[2-(6-fluoro-2,4-dimethyl-indol-1-yl)-ethylamino]-pyrimidin-4-yl}-thiophene-2-carboxylic acid], the IC50 came to 17 nM in experiment [1] (setting [3]) and 99 nM in experiment [2] (setting [4]).

With `COc1cc(-c2cc(NCCn3c(C#N)cc4c(OC)ccc(F)c43)ncn2)ccc1-c1cc(O)no1` [Example 855, 7-Fluoro-1-(2-{6-[4-(3-hydroxy-isoxazol-5-yl)-3-methoxy-phenyl]-pyrimidin-4-ylamino}-ethyl)-4-methoxy-1H-indole-2-carbonitrile], the IC50 was 6 nM in experiment [1] (setting [5]) and 3 nM in experiment [2] (setting [6]).

Regarding `COc1ccc(F)c2c1cc(C#N)n2CCNc1cc(-c2cc3cc(C(=O)O)ccc3[nH]2)ncn1` [Example 960, 2-{6-[2-(2-Cyano-7-fluoro-4-methoxy-indol-1-yl)-ethylamino]-pyrimidin-4-yl}-1H-indole-5-carboxylic acid], the half-maximal inhibitory concentration (IC50) in experiment [1] (setting [5]) is 9 nM; in experiment [2] (setting [6]), 4 nM.

Turning to `CCOc1cc(-c2cc(NCCn3c(C#N)cc4c(OC)cc(F)c(F)c43)ncn2)ccc1C(=O)O` [Example 957, 4-{6-[2-(2-Cyano-6,7-difluoro-4-methoxy-indol-1-yl)-ethylamino]-pyrimidin-4-yl}-2-ethoxy-benzoic acid], the IC50 in experiment [1] (setting [5]) worked out at 56 nM; in experiment [2] (setting [6]), 54 nM.

In the case of `COc1ccc(F)c2c1cc(C)n2CCNc1cc(-c2ccc(S(N)(=O)=O)c(Cl)c2)ncn1` [compound 172], the IC50 came to 54 nM in experiment [1] (setting [3]) and 536 nM in experiment [2] (setting [4]).

For `COc1cc(F)c(F)c2c1cc(C)n2CCNc1cc(-c2ccc(-c3c[nH]cn3)cc2)ncn1` [compound 307, [2-(6,7-Difluoro-4-methoxy-2-methyl-indol-1-yl)-ethyl]-{6-[4-(1H-imidazol-4-yl)-phenyl]-pyrimidin-4-yl}-amine], the IC50 in experiment [1] (setting [3]) was found to be 25 nM; in experiment [2] (setting [4]), 47 nM.

Consider `CCOc1cc(-c2cc(NCCn3c(C#N)cc4c(C)cc(F)cc43)ncn2)ccc1C(=O)O` [compound 395], for which the IC50 in experiment [1] (setting [3]) was determined as 24 nM; in experiment [2] (setting [4]), 137 nM.

Take `Cc1cc2c(Cl)ccc(F)c2n1CCNc1cc(-c2ccc(C(=O)O)cc2)ncn1` [compound 46]: the IC50 in experiment [1] (setting [3]) came to 29 nM; in experiment [2] (setting [4]), 970 nM.

`COc1ccc(F)c2c1cc(C)n2CCNc1cc(-c2ccc3[nH]c(C)nc3c2)ncn1` [compound 81, [2-(7-Fluoro-4-methoxy-2-methyl-indol-1-yl)-ethyl]-[6-(2-methyl-1H-benzoimidazol-5-yl)-pyrimidin-4-yl]-amine]: the results for the IC50 in experiment [1] (setting [3]) and in experiment [2] (setting [4]) were 44 nM and 86 nM, respectively.

For `COC(=O)c1ccc(-c2cc(NCCn3c(C#N)cc4c(OC)ccc(F)c43)ncn2)cc1F` [Example 999, 4-{6-[2-(2-Cyano-7-fluoro-4-methoxy-indol-1-yl)-ethylamino]-pyrimidin-4-yl}-2-fluoro-benzoic acid methyl ester], the results for the IC50 in experiment [1] (setting [5]) and in experiment [2] (setting [6]) were 30 nM and 23 nM, respectively.

With `CSc1cc(-c2cc(NCCn3c(C)cc4c(C)ccc(Cl)c43)ncn2)cc(Cl)c1C(=O)O` [compound 150], the IC50 in experiment [1] (setting [3]) was found to be 54 nM; in experiment [2] (setting [4]), 458 nM.

On to `CCOc1cc(-c2cc(NCCn3c(C)cc4cc(Cl)cc(Cl)c43)ncn2)ccc1C(=O)O` [compound 153], for which the half-inhibitory concentration (IC50) turned out to be 202 nM in experiment [1] (setting [3]) and 739 nM in experiment [2] (setting [4]).

Take `CCNc1cc(-c2cc(NCCn3c(C)cc4cccc(OC)c43)ncn2)ccc1C(=O)O` [compound 247]: the values for the half-maximal inhibitory concentration (IC50) in experiment [1] (setting [3]) and in experiment [2] (setting [4]) were 32 nM and 681 nM, respectively.

Regarding `COc1ccc(F)c2c1cc(C#N)n2CCNc1cc(-c2ccnc(N3CCCCC3)c2)ncn1` [Example 976, 7-Fluoro-4-methoxy-1-{2-[6-(3,4,5,6-tetrahydro-2H-[1,2′]bipyridinyl-4′-yl)-pyrimidin-4-ylamino]-ethyl}-1H-indole-2-carbonitrile], the IC50 in experiment [1] (setting [5]) worked out at 194 nM; in experiment [2] (setting [6]) it was 317 nM.

For the compound `CCC(C)c1cc(-c2cc(NCCn3c(C)cc4c(C)ccc(F)c43)ncn2)ccc1C(=O)O` (racemic) [compound 337], the values for the IC50 in experiment [1] (setting [3]) and in experiment [2] (setting [4]) were 89 nM and 308 nM, respectively.

Regarding `Cc1ccc(F)c2c1cc(C)n2CCNc1cc(-c2ccc(N3CCCS3(=O)=O)cc2)ncn1` [compound 316], the concentration for half-maximal inhibition (IC50) in experiment [1] (setting [3]) worked out at 245 nM; in experiment [2] (setting [4]), 906 nM.

For `CCc1cc(-c2cc(NCCn3c(C)cc4c(C)ccc(F)c43)ncn2)sc1C(=O)O` [compound 103], the half-inhibitory concentration (IC50) turned out to be 13 nM in experiment [1] (setting [3]) and 58 nM in experiment [2] (setting [4]).
